# Earlier results as cited in US7074797B2, “Pyrazolopyrimidines as CRF receptor antagonists” (Neurocrine Biosciences, Inc., priority 1996, dated 2006).
# No end group written: not given here.
# Assays:
# Rats [1] = conditions: central administration
# Rats [2] = conditions: ICV, animals previously familiarized with the apparatus, fifteen minute session
substance,measurement,setting,value
"CRF: corticotropin-releasing factor, a 41-amino acid peptide (SEEPPISLDLTFHLLREVLEMARAEQLAQQAHSNRKLMEII-NH2; ends and bridges not checked; UniProt P06850 154-194, looked up)",exploration in the elevated plus maze,Rats [1],suppresses exploration
same,latency to emerge from the small chamber,Rats [2],increases
same,mean time spent in the chamber,Rats [2],increases
